Molecules are shown by their SMILES.

From EPA's ToxRefDB 2 come the findings set out here.

Data set [1] relates to dog. Particulars: Subchronic oral toxicity in nonrodent, beagle, Capsule, dose end: 6 month, group: systemic, systemic / organ weight / liver / relative to body weight.
The subject of data set [2] is mouse. The conditions noted are these: Carcinogenicity, other, Oral, Feed, dose end: 98 week, group: systemic.
For data set [3], the system named is rat. Particulars: Combined chronic toxicity/carcinogenicity, wistar, Oral, Feed, dose end: 2 year, group: systemic.
Data set [4] concerns rat. Particulars: Prenatal developmental toxicity study, wistar, Oral, Gavage/Intubation, dose end: 16 GD.
Data set [5] concerns rat. Particulars: Multigenerational reproductive toxicity study, wistar, Oral, Feed, dose end: 3 generation.
A further data set has as its system rabbit. The conditions noted are these: Prenatal developmental toxicity study, dutch, Oral, Gavage/Intubation, dose end: 18 GD.
Data set [6] has as its system rat. The conditions noted are these: Combined chronic toxicity/carcinogenicity, wistar, Oral, Feed, dose end: 104 week, group: systemic.
In data set [7] the test system is mouse. Particulars: Carcinogenicity, cd1, Oral, Feed, dose end: 100 week, group: systemic.
Data set [8] deals with mouse. Particulars: Carcinogenicity; cd1; Oral; Feed; dose end: 24 month; group: systemic; systemic / in life observation / clinical signs / anogenital staining + systemic / in life observation / clinical signs / distended abdomens….
Data set [9] has as its system dog. The conditions noted are these: Chronic toxicity; beagle; Oral; Capsule; dose end: 52 week; group: systemic; systemic / clinical chemistry / alkaline phosphatase (alp/alk) / alkaline phosphatase (alp/alk) + systemic / organ weight / liver / nos + ….
Data set [10] relates to rat. The conditions noted are these: Subchronic oral toxicity in rodents, sprague dawley, Gavage/Intubation, dose end: 13 week, group: systemic.
The subject of data set [11] is mouse. The conditions noted are these: Carcinogenicity, cd1, Oral, Feed, dose end: 104 week, group: systemic.
In data set [12] the test system is rat. The conditions noted are these: Combined chronic toxicity/carcinogenicity, sprague dawley, Oral, Feed, dose end: 24 month, group: systemic.
The test system of data set [13] is dog. Particulars: Chronic toxicity, beagle, Oral, Feed, dose end: 24 month, group: systemic.
Setting [14] is: systemic / hematology / platelet / platelet + systemic / organ weight / liver / relative to body weight + systemic / hematology / leukocyte….
Setting [15] is: systemic / organ weight / kidney / absolute + systemic / organ weight / kidney / relative to body weight.
The mark [16] stands for this setting: systemic / organ weight / kidney / nos + systemic / organ weight / liver / nos + systemic / clinical chemistry / aminopyrine-n-demethylase….
Where [17] appears, read: group: developmental, developmental / developmental malformation / bone / short supernumerary + systemic / in life observation / body weight / fetal weight.
Where [18] appears, read: group: maternal, systemic / in life observation / body weight / body weight gain + systemic / in life observation / clinical signs / headflicking + systemic….
[19] abbreviates: group: offspring, systemic / pathology microscopic / liver / hypertrophy.
[20] abbreviates: group: parental, systemic / in life observation / clinical signs / tremors.
The mark [21] stands for this setting: group: developmental, developmental / developmental malformation / bone / incomplete ossification + systemic / in life observation / body weight / fetal weight.
Setting [22] is: group: maternal, systemic / in life observation / body weight / body weight gain.
Setting [23] is: group: maternal, systemic / in life observation / body weight / body weight gain + systemic / in life observation / body weight / body weight.
[24] abbreviates: systemic / in life observation / clinical signs / tremors + systemic / hematology / platelet / platelet + systemic / organ weight / kidney….
Setting [25] is: systemic / organ weight / liver / absolute.
The mark [26] stands for this setting: systemic / pathology gross / liver / mass + systemic / pathology gross / lung / mass + systemic / pathology microscopic / liver / ….
Setting [27] is: systemic / organ weight / heart / nos + systemic / organ weight / heart / relative to body weight.
Setting [28] is: systemic / organ weight / heart / nos + systemic / organ weight / heart / relative to body weight + systemic / hematology / erythrocyte (rbc….
Where [29] appears, read: systemic / pathology microscopic / liver / adenoma + systemic / pathology microscopic / liver / adenoma/carcinoma combined + systemic / ….
The mark [30] stands for this setting: systemic / pathology microscopic / liver / eosinophilic focus.
The mark [31] stands for this setting: systemic / organ weight / thyroid gland / relative to body weight.
Where [32] appears, read: systemic / organ weight / thyroid gland / relative to body weight + systemic / organ weight / liver / relative to body weight.

One may read the LOAEL as the lowest tested level that showed an adverse finding. In general, NOAEL refers to the highest tested level that showed no adverse finding. As to `CC1(C)C(C=C(Cl)Cl)C1C(=O)OCc1cccc(Oc2ccccc2)c1` (stereo not drawn) [Permethrin], the LEL in the data set on dog [1] turned out to be 50 mg/kg/day; in the data set on mouse [2] (setting [15]) it was 26.9 mg/kg/day; with rat [3] (setting [16]), 19.4 mg/kg/day; with rat [4] (setting [17]), 150 mg/kg/day; in the data set with rat [4] (setting [18]), 150 mg/kg/day; with rat [5] (setting [19]) it was 25 mg/kg/day. Besides, the LEL worked out at 125 mg/kg/day in the data set with rat [5] (setting [20]); 1200 mg/kg/day with rabbit (setting [21]); 600 mg/kg/day in the data set on rabbit (setting [23]); 50 mg/kg/day in the data set on rat [6] (systemic / hematology / platelet / platelet + systemic / pathology microscopic / liver / hypertrophy + systemic / pathology microscopic / …); 780 mg/kg/day in the data set with mouse [7] (setting [26]); 3 mg/kg/day in the data set with mouse [8]. Besides, the LEL with dog [9] amounted to 100 mg/kg/day. Moreover, the LOAEL with dog [1] is over 250 mg/kg/day; with mouse [2] (setting [14]) it was over 287 mg/kg/day; in the data set with rat [3] (systemic / in life observation / clinical signs / hypersensitivity + systemic / in life observation / clinical signs / tremors) it was 91.5 mg/kg/day; with rat [4] (setting [17]), 150 mg/kg/day; in the data set with rat [4] (setting [18]), 150 mg/kg/day; in the data set on rat [5] (setting [19]), over 125 mg/kg/day. The LOAEL with rat [5] (setting [20]) was 125 mg/kg/day; in the data set on rabbit (group: developmental, developmental / developmental malformation / bone / incomplete ossification), 1200 mg/kg/day; in the data set on rabbit (setting [22]), 600 mg/kg/day; in the data set with rat [6] (systemic / in life observation / clinical signs / tremors), 250 mg/kg/day; in the data set on mouse [7] (setting [25]), 807 mg/kg/day; with mouse [8], over 714 mg/kg/day. Moreover, the LOAEL in the data set with dog [9] came out at 100 mg/kg/day. Moreover, the NEL in the data set with dog [1] is 10 mg/kg/day; in the data set on mouse [2] (setting [15]), under 26.9 mg/kg/day; in the data set with rat [3] (setting [16]) it was under 19.4 mg/kg/day; in the data set on rat [4] (setting [17]), 50 mg/kg/day; in the data set on rat [4] (setting [18]), 50 mg/kg/day; with rat [5] (setting [19]), under 25 mg/kg/day. Further, the NEL with rat [5] (setting [20]) is 50 mg/kg/day; in the data set on rabbit (setting [21]) it was 600 mg/kg/day; in the data set with rabbit (setting [23]) it was under 600 mg/kg/day; in the data set on rat [6] (setting [24]), 10 mg/kg/day; in the data set on mouse [7] (setting [26]) it was under 780 mg/kg/day; with mouse [8], under 3 mg/kg/day. Also, in the data set on dog [9], the NEL came out at 5 mg/kg/day. For the same molecule, the NOAEL with dog [1] is at least 250 mg/kg/day; with mouse [2] (setting [14]), at least 287 mg/kg/day; in the data set with rat [3] (systemic / in life observation / clinical signs / hypersensitivity + systemic / in life observation / clinical signs / tremors + systemic / …) it was 36.9 mg/kg/day; in the data set with rat [4] (setting [17]) it was 50 mg/kg/day; in the data set with rat [4] (setting [18]) it was 50 mg/kg/day; in the data set on rat [5] (setting [19]), at least 125 mg/kg/day. The NOAEL with rat [5] (setting [20]) is 50 mg/kg/day; in the data set on rabbit (setting [21]), 600 mg/kg/day; in the data set with rabbit (setting [22]) it was under 600 mg/kg/day; in the data set on rat [6] (setting [24]) it was 50 mg/kg/day; in the data set with mouse [7] (setting [25]), under 807 mg/kg/day; in the data set on mouse [8] it was at least 714 mg/kg/day. Also, the NOAEL with dog [9] came out at 5 mg/kg/day.

As to `O=C([O-])CF.[Na+]` [Sodium fluoroacetate], in the data set with rat [10] (setting [27]), the NEL was determined as 0.05 mg/kg/day and the NOAEL was 0.05 mg/kg/day. Also, in the data set with rat [10] (setting [28]), the LEL was 0.2 mg/kg/day and the lowest-observed-adverse-effect level (LOAEL) amounted to 0.2 mg/kg/day.

Consider `Cc1[nH]c(=O)n(C(C)(C)C)c(=O)c1Cl` [Terbacil], for which the LEL came to 7.2 mg/kg/day in the data set with mouse [11] (setting [29]), 0.9 mg/kg/day in the data set on rat [12] (setting [30]) and 6.25 mg/kg/day in the data set with dog [13] (setting [31]). The NEL with mouse [11] (setting [29]) was under 7.2 mg/kg/day; with rat [12] (setting [30]) it was under 0.9 mg/kg/day; in the data set with dog [13] (setting [32]), 1.25 mg/kg/day. Also, the values for the LOAEL in the data set on mouse [11] (systemic / pathology microscopic / liver / hyperplastic nodule (pre-neoplastic)), in the data set with rat [12] (systemic / organ weight / liver / absolute + systemic / organ weight / liver / relative to body weight + systemic / in life observation / …) and in the data set with dog [13] (setting [31]) were 1070 mg/kg/day, 83 mg/kg/day and 6.25 mg/kg/day, respectively. For the same molecule, the NOAEL in the data set with mouse [11] (systemic / pathology microscopic / liver / hyperplastic nodule (pre-neoplastic) + systemic / pathology microscopic / liver / adenoma + …) was determined as 179 mg/kg/day; in the data set on rat [12] (systemic / organ weight / liver / absolute + systemic / organ weight / liver / relative to body weight + systemic / pathology microscopic / …) it was 1.4 mg/kg/day; with dog [13] (setting [32]) it was 1.25 mg/kg/day.
